# Measured values as given in US12492224B2, “Bicyclic peptide ligands specific for PD-L1” (BicycleTx Limited, priority 2018, dated 2025).
# Where no end group is shown, it is not given here. [ ]: non-standard residue; d: D form. hArg = N=C(N)NCCCC[C@H](N)C(=O)O; Aad = N[C@@H](CCCC(=O)O)C(=O)O; Nva = CCC[C@H](N)C(=O)O
# Target: T1, human PD-L1 (Homo sapiens, UniProt Q9NZQ7)
# T1 construct: purchased Sino Biologicals or R&D systems
# Test: PD-L1 SPR Binding Assay (Biacore), human
# Conditions: 25° C.
# Experimental: The protein was desalted to remove uncoupled biotin using spin columns into PBS. For analysis of binding, a Biacore 3000 instrument was used utilizing a CM5 sensor chip (GE Healthcare). Streptavidin was immobilized on the chip using standard amine-coupling chemistry at 25° C. with HBS-N (10 mM HEPES, 0.15 M NaCl, pH 7.4) as the running buffer. The carboxymethyl dextran surface was activated with a 12 min injection of a 1:1 ratio of 0.4 M 1-ethyl-3-(3-dimethylaminopropyl) carbodiimide hydrochloride (EDC)/0.1 M N-hydroxy succinimide (NHS) at a flow rate of 10 μl/min. For capture of streptavidin, protein was diluted to 0.1 mg/ml in 10 mM sodium acetate (pH 4.5) and captured by injecting 70 μl onto the activated chip surface. Residual activated groups were blocked with a 7 min injection of 1 M ethanolamine (pH 8.5). Biotinylated PD-L1 stock was diluted 1:100 in HBS-N and captured on one flow cell at 5 μl/min to a level of 1000-1300 RU. Buffer was changed to PBS/0.05% Tween 20 and a dilution series of the peptides was prepared in this buffer with a final DMSO concentration of 0.5%. The top concentrations were 200 nM or 500 nM with 6 2-fold dilutions. The SPR analysis was run at 25° C. at a flow rate of Flow rate 50 μl/min with 60 seconds association and 400 seconds disassociation. Data were corrected for DMSO excluded volume effects. All data were double-referenced for blank injections and reference surface using standard processing procedures and data processing and kinetic fitting were performed using Scrubber software, version 2.0c (Biologic Software). Data were fitted using mass transport model allowing for mass transport effects where appropriate.
# T1 sequence (Q9NZQ7 19-290): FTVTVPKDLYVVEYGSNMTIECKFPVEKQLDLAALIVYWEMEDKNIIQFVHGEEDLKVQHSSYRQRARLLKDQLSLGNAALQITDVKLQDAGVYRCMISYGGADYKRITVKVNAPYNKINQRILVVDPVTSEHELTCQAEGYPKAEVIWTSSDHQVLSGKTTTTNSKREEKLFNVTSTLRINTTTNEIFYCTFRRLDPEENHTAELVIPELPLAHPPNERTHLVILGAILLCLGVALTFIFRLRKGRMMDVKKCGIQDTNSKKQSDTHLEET
row,Substance,Kd [nM]
1,Ac-SEKCS[Aad]GWLTMCLKLHLC (cysteine pairing not given here) [BCY11825],28.8
2,SD[HArg]CSAGWLTMCQKLHLCA [BCY10052],22.3
3,SDKCS[Nle]GWLTMCQKLHLCA [BCY10062],23
4,SDKCSAGWLT[Nle]CQKLHLCA [BCY10058],59.7
5,Ac-EKCS[Aad]GWLTMCLKLHLC (cysteine pairing not given here) [BCY11826],18.2
6,Ac-KCS[Aad]GWLTMCLKLHLC (cysteine pairing not given here) [BCY11824],60
7,SDKCSAGWLTMCQKL[Aib]LCA [BCY10073],15.8
8,Ac-SDKCS[Aad]GWLTMCLKLHLCA [BCY11828],16.6
9,SDKCSAGWLTMCQKLH[Nle]CA [BCY10074],36.1
10,SDKCS[Aib]GWLTMCQKLHLCA [BCY10054],31.2
11,SDKCSAGWLTMCQK[Nle]HLCA [BCY10071],58.2
12,SDKCSAGWLTMCQKLH[Nva]CA [BCY10083],75
13,Ac-SEKCS[Aad]GWLTMCLKLHLCPSH (cysteine pairing not given here) [BCY11831],13.2
14,SDKCS[Abu]GWLTMCQKLHLCA [BCY10055],27.9
15,Ac-[hArg]CS[Aad]GWLTMCLKLHLC (cysteine pairing not given here) [BCY11827],30
16,SDKCSAGWLTMCQK[Nva]HLCA (cysteine pairing not given here) [BCY10084],43.2
17,Ac-DKCS[Aad]GWLTMCQKLHLCPSH-COOH [BCY11853],17.6
18,SDKCSAGWLTMCQ[Nle]LHLCA [BCY10068],54.5
19,SDKCSAGWLTMC[Chg]KLHLCA [BCY10066],14.4

# Target: T2, PD-1/PD-L1 interaction (Homo sapiens, UniProt Q9NZQ7)
# T2 construct: host or cells: CHO-K1 (human PD-L1) and Jurkat (human PD-1, NFAT-luciferase)
# Test: PD-1/PD-L1 Blockade Bioassay (Jurkat PD-1 NFAT-luciferase / CHO-K1 PD-L1)
# Type: cell-based
# Conditions: FIG. 1 and Table 6
# Experimental: Effector Jurkat cells engineered to overexpress human PD-1 and express a luciferase gene under the NFAT response element were purchased from Promega. Target CHO-K1 cells which overexpress human PD-L1 and an engineered cell surface protein designed to activate the Jurkat's T cell receptor in an antigen-independent manner were also purchased from Promega. CHO-K1 cells were plated the day before the assay in Ham's F-12 Medium+10% FBS and were allowed to adhere to the plate. On the day of the assay, media was removed and Jurkat cells were plated with a dose response of test articles in RPMI1640 media with 1% FBS (80 μL total volume per well). […] After 6 hours of incubation at 37° C., 5% CO2, 80 μL of Bio-Glo reagent (Promega) was added to each well and allowed to equilibrate for 10 minutes at room temperature. Luminescence was read on the Clariostar plate reader (BMG LabTech). Fold induction was calculated by dividing the luminescence signal by the average of the background wells (wells with both cell lines and no test article). Data was graphed in Prism and fit to a 4-parameter logistic curve.
# T2 sequence (Q9NZQ7 19-290): as above
row,Substance,ability to block PD-1/PD-L1 interaction between PD-1 expressing T cells and CHO-K1 stable expressing PD-L1
1,[Ac]SDKCSAGWLTMCKQLNLCPSH [BCY10467],demonstrated the ability to block PD-1/PD-L1 interaction
2,[Ac]SDKCSAGWLTMCKQLNLCPSH-COOH [BCY10939],demonstrated the ability to block PD-1/PD-L1 interaction
3,[Ac]SD[HArg]CS[Nle]GWLT[hPhe]CLKL[Aib]LCPSH [BCY10959],demonstrated the ability to block PD-1/PD-L1 interaction
